Measurements: US8748436B2, “Carboxylic acid derivatives having a 2,5,7-substituted oxazolopyrimidine ring” (Sanofi, priority 2010, dated 2014)

These compounds were tested against T1, human Edg-1 receptor (Homo sapiens, UniProt P21453) (assay: GTP-γ-S assay using human Edg-1 receptors (scintillation proximity assay, CHO Flp-In cell membrane preparation)). Conditions: test compound at 10 μM; high control 10 μM S1P regarded as 100% activation; [35S]GTP-γ-S binding, triplicate; read-out: % Activation (Edg-1 receptor activation in percent of the activation by 10 μM S1P).
T1 construct: FLAG (N); expressed in transfected cells; membrane preparation
Assay type: biochemical
Description: A) GTP-γ-S Assay Using Human Edg-1 Receptors
In order to determine the Edg-1 receptor activation by the compounds of the invention, a GTP-γ-S (guanosine 5′-[thio]triphosphate) assay for G-protein coupled receptor binding based on the scintillation proximity assay principle was used, employing a cell membrane preparation from a CHO Flp-In cell line which constitutively overexpresses the human Edg-1 receptor.
The Flp-In™ expression system (Invitrogen, cat. no. K6010-01) allows the generation of stable mammalian cell lines into which the gene of interest has been integrated through homologous recombination at a specific genomic location called Flp Recombination Target (FRT) site by means of a Flp recombinase encoded by the pOG44 expression plasmid. The integration of the pcDNA5/FRT expression construct into the Flp-In host cell line genome results in the transcription of the gene of interest. The stably transfected cells become hygromycin-resistant.
One day prior to transfection, 200 000 Flp-In-CHO cells were seeded in Ham F-12 medium (Invitrogen, cat. no. 31765) supplemented with 10% fetal calf serum (FCS; Perbio Science, cat. no. SH30068.03) in a 6-well plate and incubated at 37° C./5% CO2 overnight. Using the FuGENE® 6 transfection reagent (Roche, cat. no. 11988387001), cells were cotransfected with the Flp recombinase expression plasmid pOG44 and a modified plasmid additionally containing the edg-1 gene (accession no. NM_001400) termed as pcDNA5-FRT-TO_nFLAG_DEST-EDG-1 with a 9:1 ratio. To obtain the modified pcDNA5-FRT-TO_nFLAG_DEST plasmid, the Invitrogen plasmid pcDNA5/FRT/TO (Invitrogen, cat. no. V6520-20) was adapted to the Gateway® (Invitrogen) cloning system by inserting a Gateway cassette containing attR recombination sites flanking a ccdB gene and a chloramphenicol-resistance gene (Gateway conversion system, Invitrogen, cat. no. 11828-029). In addition a FLAG tag epitope was added before the 5′ att recombination site to allow recombinant expression of N-terminally FLAG-tagged proteins.
For the transfection of one well, 1.08 μg of pOG44 and 0.12 μg of pcDNA5-FRT-TO_nFLAG_DEST-EDG-1 were mixed to 100 μl of serum-free Ham F-12 medium containing 6 μl of FuGENE® 6 transfection reagent. After 20 min of incubation, the transfection reagent/DNA complex was distributed dropwise on the cells. The cells were incubated for 24 h at 37° C. Then the cells from 3 wells were transferred to a T75 flask (Greiner Cellstar®, cat. no. 658175) containing Ham F-12 medium supplemented with 10% of FCS but without antibiotic and were incubated another 24 h. 48 h after transfection, the medium was replaced by selection medium (Ham F-12 supplemented with 10% of FCS and 300 μg/ml of hygromycin B (Invitrogen, cat. no. 10687-010)). The medium was exchanged every 2 to 3 days until a resistant population of cells had grown. […] After 2 weeks of selection, the cells were transferred into T175 flasks (Greiner Cellstar®, cat. no. 660175) and cultivated for batch production. Cells were harvested from the culture flasks by short treatment (2 to 5 min) with Accutase (PAA, cat. no. L11-007), resuspended in selection medium (see above) and centrifuged at 200×g for 5 min. The cells were resuspended in a mixture of 90% of FCS and 10% of dimethylsulfoxide and stored frozen in liquid nitrogen.
A membrane preparation was obtained by standard methods from the afore-described CHO Flp-In cell line constitutively overexpressing the human Edg-1 receptor. Briefly, the cryopreserved cells were taken in culture and grown until confluency in T175 cell culture flasks (Becton Dickinson, cat. no. 35 5001). […]

T1 sequence (P21453 whole entry): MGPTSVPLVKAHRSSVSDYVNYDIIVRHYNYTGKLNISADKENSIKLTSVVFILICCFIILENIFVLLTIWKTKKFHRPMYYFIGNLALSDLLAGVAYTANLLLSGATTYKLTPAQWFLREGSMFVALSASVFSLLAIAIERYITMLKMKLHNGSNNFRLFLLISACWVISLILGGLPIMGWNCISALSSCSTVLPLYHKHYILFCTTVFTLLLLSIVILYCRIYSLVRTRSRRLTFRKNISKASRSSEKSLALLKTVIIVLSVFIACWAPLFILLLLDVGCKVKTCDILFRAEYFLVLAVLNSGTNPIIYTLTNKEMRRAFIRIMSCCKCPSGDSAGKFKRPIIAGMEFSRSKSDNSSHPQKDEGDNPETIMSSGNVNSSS

Row | SMILES | activation at 10 µM [%]
1 | CCCOc1nc(Oc2ccc(F)c(F)c2)nc2oc(-c3cc(C)c(OCC(=O)O)c(C)c3)nc12 [Example 51, {4-[5-(3,4-difluorophenoxy)-7-propoxy-oxazolo[5,4-d]pyrimidin-2-yl]-2,6-dimethylphenoxy}-acetic acid] | 49
2 | CCCOc1nc(Oc2cccc3c2CCC3)nc2oc(-c3cc(C)c(OCC(=O)O)c(C)c3)nc12 [Example 52, {4-[5-(indan-4-yloxy)-7-propoxy-oxazolo[5,4-d]pyrimidin-2-yl]-2,6-dimethylphenoxy}-acetic acid] | 54
3 | CCCOc1nc(Oc2ccc3c(c2)CCC3)nc2oc(-c3cc(C)c(OCC(=O)O)c(C)c3)nc12 [Example 53, {4-[5-(indan-5-yloxy)-7-propoxy-oxazolo[5,4-d]pyrimidin-2-yl]-2,6-dimethylphenoxy}-acetic acid] | 55
4 | CCCOc1nc(Oc2cccc(Cl)c2C)nc2oc(-c3cc(C)c(OCC(=O)O)c(C)c3)nc12 [Example 54, {4-[5-(3-chloro-2-methylphenoxy)-7-propoxy-oxazolo[5,4-d]pyrimidin-2-yl]-2,6-dimethyl-phenoxy}-acetic acid] | 107
5 | CCCOc1nc(Oc2ccc(C)c(Cl)c2)nc2oc(-c3cc(C)c(OCC(=O)O)c(C)c3)nc12 [Example 55, {4-[5-(3-chloro-4-methylphenoxy)-7-propoxy-oxazolo[5,4-d]pyrimidin-2-yl]-2,6-dimethylphenoxy}-acetic acid] | 66
6 | CCCOc1nc(Oc2cc(Cl)ccc2C)nc2oc(-c3cc(C)c(OCC(=O)O)c(C)c3)nc12 [Example 56, {4-[5-(5-chloro-2-methylphenoxy)-7-propoxy-oxazolo[5,4-d]pyrimidin-2-yl]-2,6-dimethyl-phenoxy}-acetic acid] | 78
7 | CCCOc1nc(Oc2ccc3ccccc3c2)nc2oc(-c3cc(C)c(OCC(=O)O)c(C)c3)nc12 [Example 57, {2,6-dimethyl-4-[5-(naphthalen-2-yloxy)-7-propoxy-oxazolo[5,4-d]pyrimidin-2-yl]-phenoxy}-acetic acid] | 58
8 | CCCOc1nc(Oc2cnc3ccccc3c2)nc2oc(-c3cc(C)c(OCC(=O)O)c(C)c3)nc12 [Example 58, {2,6-dimethyl-4-[7-propoxy-5-(quinolin-3-yloxy)-oxazolo[5,4-d]pyrimidin-2-yl]-phenoxy}-acetic acid] | 75
9 | CCCOc1nc(Oc2ccc(Cl)cc2F)nc2oc(-c3cc(C)c(OCC(=O)O)c(C)c3)nc12 [Example 59, {4-[5-(4-chloro-2-fluorophenoxy)-7-propoxy-oxazolo[5,4-d]pyrimidin-2-yl]-2,6-dimethyl-phenoxy}-acetic acid] | 72
10 | CCCOc1nc(Oc2cc(F)cc(Cl)c2)nc2oc(-c3cc(C)c(OCC(=O)O)c(C)c3)nc12 [Example 60, {4-[5-(3-chloro-5-fluorophenoxy)-7-propoxy-oxazolo[5,4-d]pyrimidin-2-yl]-2,6-dimethyl-phenoxy}-acetic acid] | 59
11 | CCCOc1nc(Oc2ccc(F)cc2Cl)nc2oc(-c3cc(C)c(OCC(=O)O)c(C)c3)nc12 [Example 61, {4-[5-(2-chloro-4-fluorophenoxy)-7-propoxy-oxazolo[5,4-d]pyrimidin-2-yl]-2,6-dimethyl-phenoxy}-acetic acid] | 97
12 | CCCOc1nc(Oc2ccc(F)c(Cl)c2)nc2oc(-c3cc(C)c(OCC(=O)O)c(C)c3)nc12 [Example 62, {4-[5-(3-chloro-4-fluorophenoxy)-7-propoxy-oxazolo[5,4-d]pyrimidin-2-yl]-2,6-dimethylphenoxy}-acetic acid] | 56
13 | CCCOc1nc(Oc2cccc(Cl)c2F)nc2oc(-c3cc(C)c(OCC(=O)O)c(C)c3)nc12 [Example 63, {4-[5-(3-chloro-2-fluorophenoxy)-7-propoxy-oxazolo[5,4-d]pyrimidin-2-yl]-2,6-dimethyl-phenoxy}-acetic acid] | 67
14 | CCCOc1nc(Oc2ccc(Cl)c(F)c2)nc2oc(-c3cc(C)c(OCC(=O)O)c(C)c3)nc12 [Example 64, {4-[5-(4-chloro-3-fluorophenoxy)-7-propoxy-oxazolo[5,4-d]pyrimidin-2-yl]-2,6-dimethylphenoxy}-acetic acid] | 65
15 | CCCOc1nc(Oc2cc(F)ccc2Cl)nc2oc(-c3cc(C)c(OCC(=O)O)c(C)c3)nc12 [Example 65, {4-[5-(2-chloro-5-fluorophenoxy)-7-propoxy-oxazolo[5,4-d]pyrimidin-2-yl]-2,6-dimethylphenoxy}-acetic acid] | 105
16 | CCCOc1nc(Oc2ccc3ncsc3c2)nc2oc(-c3cc(C)c(OCC(=O)O)c(C)c3)nc12 [Example 66, {4-[5-(benzothiazol-6-yloxy)-7-propoxy-oxazolo[5,4-d]pyrimidin-2-yl]-2,6-dimethylphenoxy}-acetic acid] | 102
17 | CCCOc1nc(Oc2cccc(C(F)(F)F)c2)nc2oc(-c3cc(C)c(OCC(=O)O)c(C)c3)nc12 [Example 67, {2,6-dimethyl-4-[7-propoxy-5-(3-trifluoromethylphenoxy)-oxazolo[5,4-d]pyrimidin-2-yl]-phenoxy}-acetic acid] | 82
18 | CCCOc1nc(Oc2ccc(C(F)(F)F)cc2)nc2oc(-c3cc(C)c(OCC(=O)O)c(C)c3)nc12 [Example 68, {2,6-dimethyl-4-[7-propoxy-5-(4-trifluoromethylphenoxy)-oxazolo[5,4-d]pyrimidin-2-yl]-phenoxy}-acetic acid] | 69
19 | CCCOc1nc(Oc2ccccc2C(F)(F)F)nc2oc(-c3cc(C)c(OCC(=O)O)c(C)c3)nc12 [Example 69, {2,6-dimethyl-4-[7-propoxy-5-(2-trifluoromethylphenoxy)-oxazolo[5,4-d]pyrimidin-2-yl]-phenoxy}-acetic acid] | 67
20 | CCCOc1nc(Oc2ccc3sc(C)nc3c2)nc2oc(-c3cc(C)c(OCC(=O)O)c(C)c3)nc12 [Example 70, {2,6-dimethyl-4-[5-(2-methylbenzothiazol-5-yloxy)-7-propoxy-oxazolo[5,4-d]pyrimidin-2-yl]-phenoxy}-acetic acid] | 89
21 | CCCOc1nc(Oc2ccccc2OC(F)(F)F)nc2oc(-c3cc(C)c(OCC(=O)O)c(C)c3)nc12 [Example 71, {2,6-dimethyl-4-[7-propoxy-5-(2-trifluoromethoxyphenoxy)-oxazolo[5,4-d]pyrimidin-2-yl]-phenoxy}-acetic acid] | 62
22 | CCCOc1nc(Oc2cccc(C(F)(F)F)c2F)nc2oc(-c3cc(C)c(OCC(=O)O)c(C)c3)nc12 [Example 72, {4-[5-(2-fluoro-3-trifluoromethylphenoxy)-7-propoxy-oxazolo[5,4-d]pyrimidin-2-yl]-2,6-dimethyl-phenoxy}-acetic acid] | 48
23 | CCCOc1nc(Oc2cc(C(F)(F)F)ccc2F)nc2oc(-c3cc(C)c(OCC(=O)O)c(C)c3)nc12 [Example 73, {4-[5-(2-fluoro-5-trifluoromethylphenoxy)-7-propoxy-oxazolo[5,4-d]pyrimidin-2-yl]-2,6-dimethylphenoxy}-acetic acid] | 59
24 | CCCOc1nc(Oc2ccc(F)c(C(F)(F)F)c2)nc2oc(-c3cc(C)c(OCC(=O)O)c(C)c3)nc12 [Example 74, {4-[5-(4-fluoro-3-trifluoromethylphenoxy)-7-propoxy-oxazolo[5,4-d]pyrimidin-2-yl]-2,6-dimethyl-phenoxy}-acetic acid] | 61
